According to article PMC3680490, “Fragment-Based Screening Maps Inhibitor Interactions in the ATP-Binding Site of Checkpoint Kinase 2” (PLoS ONE, 2013):
Marks after values point to notes of the source that are not given here.

What was measured:
[1] = molecular target: T1, full-length CHK2 (Homo sapiens, UniProt O96017); test: Microfluidic mobility shift assay for IC50 determination; assay type: biochemical; conditions: for Ligand Efficiency: calculated using mean mobility shift IC50; for IC50: mean ± SD of triplicate
T1 construct: full-length human CHK2 (residues 1 to 543); 6xHis (N); made in house; host or cells: Sf9 insect cells (baculovirus)
Experimental: In addition, percentage inhibition and IC50 values for all follow-up compounds were determined in triplicate using this assay. […] An ECHO® 550 acoustic dispenser (Labcyte Inc™, Dublin, Ireland) was used to generate duplicate eight-point dilution curves directly into 384-well low-volume polystyrene assay plates (Corning Life Sciences, New York, USA). For each compound, a 10 mM stock concentration in 100% DMSO was used.
The plate was sealed and centrifuged for 1 min at 1000 rpm before incubation for 1 h at room temperature.
IC50 values were calculated from a four-parameter logistics fit of percentage inhibition versus concentration using the Studies package (from Dotmatics, Bishops Stortford, UK).

[2] = molecular target: T2, kinase domain of CHK2 (CHK2-KD, residues 210-531) (Homo sapiens, UniProt O96017); test: Thermal shift assay (SYPRO Orange); assay type: binding; conditions: for T m, ligand (standard deviations from the plate mean): highest value of two independent measurements, 2 mM fragment; for ΔT m, ligand: mean of two independent measurements, 2 mM ligand
T2 construct: The kinase domain of CHK2 (residues 210-531) was produced as a GST-fusion protein; GST (cleaved yes); made in house
Experimental: In parallel, we screened the fragment library against the kinase domain of CHK2 (CHK2-KD, residues 210-531) using a thermal shift assay. In a thermal shift assay, the folding stability of a target protein is measured by its thermally-induced unfolding. An increase in melting temperature of a protein in the presence of a ligand is used to identify ligand binding, assuming that the bound ligand stabilizes the target protein and therefore increases the energy required for its thermal unfolding. The thermal unfolding of CHK2-KD was measured using the fluorescent dye SYPRO® Orange™, which is sensitive to its environment and preferentially binds to hydrophobic patches that are typically exposed upon protein unfolding. To identify the hit threshold, we calculated the standard deviation (SD) of the melting temperature of CHK2 in the presence of a ligand (T m, ligand) for each plate. Ligands with a T m, ligand value of more than 2 standard deviations above the mean T m, ligand for each plate in at least one of the duplicates were defined as hits. We calculated the mean change in melting temperature from duplicate measurements (ΔT m, ligand) by subtracting the mean melting temperature of six reference samples of protein without ligand (T m, 0) from the melting temperature of CHK2 samples with ligand (T m, ligand).
Thermal shift screening of the ICR fragment library against a truncated version of CHK2 comprising only the kinase domain (CHK2-KD), was carried out using an Opticon 2 RT-PCR machine (Bio-Rad, Hemel Hempstead, UK). […] All experiments were performed in white 96-well SuperPlate skirted PCR-plates (ABgene®, Thermo Scientific, Loughborough, UK). Fragments were screened at a final concentration of 2 mM in assay buffer containing a final concentration of 2% (v/v) DMSO and all measurements were carried out in duplicate. The well contents were mixed by centrifugation for 2 min at 500 g and pre-equilibrated for 5 min at 20°C before starting the thermal shift experiment. All melting curves were generated from 20°C to 95°C, raising the temperature in steps of 0.5°C and keeping it constant for 15 seconds at each step. […] MgATP (2 mM ATP and 5 mM MgCl2) in the presence of 2% (v/v) DMSO was used as a positive control. For each experiment, the data range of the protein unfolding transition was established using the Excel-based worksheet ‘DSF Analysis’, made available by the Structural Genomics Consortium (SGC), Oxford, and subsequently fitted with a Boltzmann sigmoidal equation using GraphPad Prism version 5 (GraphPad Software, San Diego, California, USA, www.graphpad.com), from which the melting temperature T m was calculated. The change in melting temperature caused by ligand binding, expressed as the mean from duplicate measurements (ΔT m, ligand), was calculated by subtracting T m, 0 from each melting temperature obtained in the presence of a ligand (T m, ligand) using the DSF-analysis spreadsheet. The hit threshold was determined by calculating the standard deviation (SD) of the melting temperatures of CHK2 in the presence of ligand (T m, ligand) for every plate. Ligands with a T m, ligand>mean(T m, ligand) +2SD in at least one of the duplicates were defined as hits.

[3] = molecular target: T1, full-length CHK2; test: High-concentration AlphaScreen kinase assay (phosphorylation of CDC25C peptide); assay type: biochemical; conditions: for inhibition at 300 µM: primary screening data, compound concentration 300 µM, mean ± SD of triplicate, read-out: AlphaScreen™ (percentage inhibition)
Experimental: To identify fragments binding in the ATP-binding-site of CHK2, we screened the in-house fragment library consisting of 1869 compounds, as described above, against full-length CHK2 using an AlphaScreen™ kinase assay, in which inhibition of full-length CHK2 was measured by a reduction in the phosphorylation of a CDC25C peptide (Figure S1). Because of the generally weak affinity of fragments, the assay was carried out at a high compound concentration (300 µM). […] All 45 hits were confirmed by re-assaying them under the same conditions. To eliminate potential false positives due to aggregation of poorly soluble fragments, or owing to interference with the AlphaScreen™ signal, the hits were assayed by including 0.01% (v/v) Triton™ X-100 in the assay buffer, and in the presence of phosphorylated rather than unphosphorylated peptide substrate, respectively. The average robust Z’ for the confirmation assays was 0.9. […] The final confirmed hit rate for the assay was 1.1%.
Full-length CHK2 was screened against the ICR fragment library consisting of 1869 fragments using a biochemical assay based on AlphaScreen™ technology in which the CHK2 kinase activity was measured by monitoring the phosphorylation of a CDC25C peptide using a phospho-specific antibody. Assay conditions were similar to those described by Hilton et al., but all fragments were screened at a final concentration of 300 µM. Amendments to the protocol included a change in the full-length CHK2 concentration to 2 nM and a final concentration of the antibody against phosphorylated CDC25C of 0.5 nM. For a positive control, 4-(2-amino-5-(thiophen-3-yl)pyridin-3-yl)benzoic acid (27, Figure S4, referred to as compound 19 in Hilton et al.) was added at a final concentration of 10 µM. The phosphorylation reaction was performed for 80 min at room temperature and stopped by the addition of 5 µL of the previously described detection buffer. Plates were incubated overnight at room temperature and in the dark, and the assay endpoint was measured using an Envision™ 2103 multilabel reader (Perkin Elmer Life Sciences, Seer Green, UK). Primary screening data were analyzed in ActivityBase (IDBS, Guildford, UK). Percentage inhibition was calculated as follows: 100*(1–(S–B)/(T–B)), where S represented the counts for each compound well, B the counts in the wells containing no enzyme, and T the counts in the total activity wells. The plates were assayed in triplicate and fragments with a percentage inhibition of 50% or more in at least two out of the three measurements were defined as initial hits. Initial hits were re-assayed under the same conditions in triplicate for reconfirmation. Furthermore, all hits were tested for interference by repeating the assay in the presence of phosphorylated rather than unphosphorylated peptide substrate, and for aggregation by including 0.01% (v/v) Triton™ X-100 in the assay buffer.

[4] = molecular target: T3, CHK1 (Homo sapiens, UniProt O14757); test: CHK1 mobility shift assay; assay type: biochemical; conditions: inactive
T3 sequence (O14757 1-476): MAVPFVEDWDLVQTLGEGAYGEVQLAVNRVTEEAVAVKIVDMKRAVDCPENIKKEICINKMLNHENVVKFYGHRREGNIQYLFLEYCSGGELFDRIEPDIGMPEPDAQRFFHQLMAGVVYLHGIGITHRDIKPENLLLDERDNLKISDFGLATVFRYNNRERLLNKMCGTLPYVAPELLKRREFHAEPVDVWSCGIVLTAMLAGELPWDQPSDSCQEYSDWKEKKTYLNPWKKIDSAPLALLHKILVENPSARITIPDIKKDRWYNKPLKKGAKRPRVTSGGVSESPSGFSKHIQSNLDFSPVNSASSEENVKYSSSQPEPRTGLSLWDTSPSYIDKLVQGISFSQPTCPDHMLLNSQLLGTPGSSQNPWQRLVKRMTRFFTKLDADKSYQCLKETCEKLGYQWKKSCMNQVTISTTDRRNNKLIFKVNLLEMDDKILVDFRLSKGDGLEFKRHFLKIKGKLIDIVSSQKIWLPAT
From the text: However, it is very difficult to assess the contribution to selectivity of binding in this pocket using the inhibitor 26, because its CHK2 selectivity is most likely dominated by the unusual binding of the benzamidazole scaffold to the hinge through a mediating water molecule.

[5] = system: ovarian cancer cell lines; conditions: cited from earlier work
[6] = system: cancer cell lines; design: method as in PMID 19741151; conditions: cited from earlier work
[7] = cited from earlier work
[8] = follow-up compounds from similarity search (Table 2)

T2 sequence (O96017 210-531): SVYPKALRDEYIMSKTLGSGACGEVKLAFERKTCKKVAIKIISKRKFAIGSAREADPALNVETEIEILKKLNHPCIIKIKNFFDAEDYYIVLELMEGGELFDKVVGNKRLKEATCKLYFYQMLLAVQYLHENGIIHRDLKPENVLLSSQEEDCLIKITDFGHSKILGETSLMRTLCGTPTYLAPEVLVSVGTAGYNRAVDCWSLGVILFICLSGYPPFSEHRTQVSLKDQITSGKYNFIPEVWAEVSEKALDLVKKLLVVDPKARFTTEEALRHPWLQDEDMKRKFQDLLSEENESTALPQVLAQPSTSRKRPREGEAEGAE
T1 sequence (O96017 whole entry, the tested form may be a part): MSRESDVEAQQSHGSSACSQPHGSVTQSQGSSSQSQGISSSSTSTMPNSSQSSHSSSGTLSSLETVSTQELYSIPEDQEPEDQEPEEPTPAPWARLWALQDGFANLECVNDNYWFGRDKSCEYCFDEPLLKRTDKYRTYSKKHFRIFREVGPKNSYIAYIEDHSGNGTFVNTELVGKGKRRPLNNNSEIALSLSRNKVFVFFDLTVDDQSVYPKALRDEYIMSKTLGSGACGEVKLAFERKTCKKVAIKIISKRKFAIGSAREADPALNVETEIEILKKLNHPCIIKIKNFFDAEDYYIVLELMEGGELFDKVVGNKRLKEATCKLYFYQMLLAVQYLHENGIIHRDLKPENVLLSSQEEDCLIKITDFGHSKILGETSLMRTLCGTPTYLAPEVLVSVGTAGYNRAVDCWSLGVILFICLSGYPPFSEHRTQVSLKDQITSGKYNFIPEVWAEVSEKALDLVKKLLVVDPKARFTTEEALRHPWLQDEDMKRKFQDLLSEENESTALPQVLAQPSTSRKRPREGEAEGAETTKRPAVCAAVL

Ligand Efficiency ([1]; Table 1)	IC50 ([1]; fragment hits, 100 µM ATP)	T m, ligand (standard deviations from the plate mean) [2]	ΔT m, ligand [2]	inhibition at 300 µM [3]	Structure (SMILES)	further results
0.47 kcal mol^−1 HA^−1	76.2 ± 3.3 µM	4.2 standard deviations	3.7±0.9 °C	71.5 ± 25.5%	Nc1cc(-c2cccnc2)n[nH]1 [Compound 17]	–
–	–	–	–	–	CCOC(=O)N1CCN(C(=O)Nc2ccc3nccnc3c2)CC1 [Compound 23]	Ligand Efficiency ([1]; Table 2): 0.28 kcal mol^−1 HA^−1; IC50 [1, 8]: 14.2 ± 8.6 µM
0.26 kcal mol^−1 HA^−1	228 ± 22.2 µM	5.7 standard deviations	4.0±0.6 °C	34.7 ± 0.93%	CC(=O)N1CCC(C(=O)Nc2ccc(C)cn2)CC1 [Compound 19]	–
–	–	–	–	–	COc1ccc(CNC(=O)c2ccc3nccnc3c2)cc1 [Compound 22]	Ligand Efficiency ([1]; Table 2): 0.34 kcal mol^−1 HA^−1; IC50 [1, 8]: 3.6 ± 1.2 µM; IC50 [4]: > 200 µM
–	–	–	–	–	C/C(=N\NC(=N)N)c1ccc(NC(=O)c2cc3cccc([N+](=O)[O-])c3[nH]2)cc1 [PV1019, 7-nitro-1H-indole-2-carboxylic acid {4-[1-(guanidinohydrazone)-ethyl]-phenyl}-amide]	Potentiation of the cytotoxicity of topotecan and campothecan ([5]; ovarian cancer cell lines): potentiation of the cytotoxicity; Antiproliferative effect [6]: antiproliferative effect
–	–	–	–	–	COc1cc2nc(-c3cc(F)ccc3O)nc(N[C@@H]3CNC[C@H]3C(C)(C)O)c2cc1OC [CCT241533]	Potentiation in combination with genotoxic agents [5]: no such effects have been observed; Potentiation of the cytotoxicity of PARP inhibitors such as AG14447 and olaparib [7]: potentiates the cytotoxicity
–	–	–	–	–	c1coc(-c2ccnc3[nH]nc(C4CC4)c23)c1 [Compound 20]	Ligand Efficiency ([1]; Table 2): 0.42 kcal mol^−1 HA^−1; IC50 [1, 8]: 7.2 ± 2.9 µM
–	–	–	–	–	c1cncc(-c2n[nH]c3ccnc(-c4cccs4)c23)c1 [Compound 21]	Ligand Efficiency ([1]; Table 2): 0.32 kcal mol^−1 HA^−1; IC50 [1, 8]: 21.3 ± 2.1 µM
–	–	–	–	–	Nc1ncc(-c2ccsc2)cc1-c1ccc(C(=O)O)cc1 [Compound 27, 4-(2-amino-5-(thiophen-3-yl)pyridin-3-yl)benzoic acid, reference compound]	inhibition at 10 µM ([3]; concentration of 10 µM, read-out: AlphaScreen™ percentage inhibition, positive control): 62.7%
0.34 kcal mol^−1 HA^−1	36.9 ± 9 µM	4.3 standard deviations	4.5±0.02 °C	59.5 ± 1.9%	CC(C)(C)NC(=O)Nc1ccc2nccnc2c1 [Compound 14]	–
0.47 kcal mol^−1 HA^−1	85.6 ± 7.9 µM	2.9 standard deviations	3.0 ^f °C	58.2 ± 1.7%	C/C(=N/O)c1ccc(O)cc1O [Compound 12]	–
–	–	–	–	–	CC(CO)NC(=N)c1c(O)nsc1Nc1ccc(Nc2ccc(Br)cc2)cc1 (centres unmarked) [VRX0466617]	Potentiation in combination with genotoxic agents [5]: no such effects have been observed
0.55 kcal mol^−1 HA^−1	15.9 ± 1.1 µM	4.6 standard deviations	5.0±0.6 °C	72.8 ± 6.7%	Cc1ccc2ncnc(N)c2c1 [Compound 15]	–
0.47 kcal mol^−1 HA^−1	76.8 ± 1.4 µM	4.6 standard deviations	3.9±1.3 °C	60.9 ± 2.1%	Cc1n[nH]c(N)c1-c1cccs1 [Compound 18]	–
0.64 kcal mol^−1 HA^−1	2.7 ± 0.2 µM	5.8 standard deviations	7.0±0.8 °C	91.4 ± 0.4%	c1ccc2c(c1)[nH]c1ncnn12 [Compound 11]	–
0.36 kcal mol^−1 HA^−1	11.7 ± 2 µM	5.7 standard deviations	5.6±0.3 °C	76.1 ± 1.1%	O=C(NCc1ccco1)c1ccc2nccnc2c1 [Compound 13]	IC50 [4]: > 200 µM
–	–	3.7 standard deviations	2.6±1.7 °C	56.1 ± 1%	Cc1cc(-c2ccccc2)n[nH]1 [Compound 16]	–
